We go through 3 compounds from patent publication US20140377223A1, “SUBSTITUTED B[…] AND METHODS OF USE THEREOF FOR THE TREATMENT OF VIRAL DISEASES” (priority 2010, published 2014).

In one assay the test system is HCV replicon genotype 1a. Put plainly: Cell-based HCV replicon assay (TaqMan-based), genotype 1a. As to conditions: Hepatitis C virus, 72 h, HCV replicon cells, replicon RNA by real time PCR (TaqMan) on day 3. The protocol: (§1) Measurement of inhibition by compounds was performed using the HCV replicon system. Several different replicons encoding different HCV genotypes or mutations were used. In addition, potency measurements were made using different formats of the replicon assay, including different ways of measurements and different plating formats. See Jan M. Vrolijk et al., A replicons-based bioassay for the measurement of interferons in patients with chronic hepatitis C, 110 J. VIROLOGICAL METHODS 201 (2003); Steven S. Carroll et al., Inhibition of Hepatitis C Virus RNA Replication by 2′-Modified Nucleoside Analogs, 278(14) J. BIOLOGICAL CHEMISTRY 11979 (2003). However, the underlying principles are common to all of these determinations, and are outlined below.
(§2) TaqMan®-Based Assay Protocol: Compounds 1, 2 and 3 were assayed for cell-based anti-HCV activity by the following protocol. Replicon cells were seeded at 5000 cells/well in 96-well collagen I-coated Nunc plates in the presence of the test compound. Various concentrations of test compound, typically in 10 serial 2-fold dilutions, were added to the assay mixture, with the starting concentration ranging from 250 μM to 1 μM. The final concentration of DMSO was 0.5%, fetal bovine serum was 5%, in the assay media. Cells were harvested on day 3 by the addition of 1× cell lysis buffer (Ambion cat #8721). The replicon RNA level was measured using real time PCR (TaqMan® assay). The amplicon was located in 5B. The PCR primers were: 5B.2F, ATGGACAGGCGCCCTGA (SEQ. ID NO. 1); 5B.2R, […] (SEQ. ID NO. 2); the probe sequence was FAM-labeled CACGCCATGCGCTGCGG (SEQ. ID NO. 3). GAPDH RNA was used as endogenous control and was amplified in the same reaction as NS5B (multiplex PCR) using primers and VIC-labeled probe recommended by the manufacturer (PE Applied Biosystem). […] Alternatively, to quantitate the absolute amount of replicon RNA, a standard curve was established by including serially diluted T7 transcripts of replicon RNA in the Taqman assay. […]

Another assay relates to HCV replicon genotype 1b. Put plainly: Cell-based HCV replicon assay (TaqMan-based), genotype 1b. Conditions: Hepatitis C virus, 72 h, HCV replicon cells, replicon RNA by real time PCR (TaqMan) on day 3. The method, then: as §1, §2
Background: A replicon is a self-replicating genome or part of one, used to study replication in cells.

Another assay deals with HCV replicon genotype 2a. Put plainly: Cell-based HCV replicon assay (TaqMan-based), genotype 2a. Conditions: Hepatitis C virus, 72 h, HCV replicon cells, replicon RNA by real time PCR (TaqMan) on day 3. The protocol: as §1, §2
The subject of a further assay is HCV replicon genotype 3a. Put plainly: Cell-based HCV replicon assay (TaqMan-based), genotype 3a. As to conditions: Hepatitis C virus, 72 h, read-out: Genotype EC50 (nM) 3a. The protocol: as §1, §2

Take `COC(=O)N[C@H](C(=O)N1C(c2ncc(-c3ccc4c(c3)-c3ccc(-c5cnc([C@@H]6[C@H]7CC[C@H](C7)N6C(=O)[C@@H](NC(=O)OC)C(C)C)[nH]5)cc3-4)[nH]2)[C@H]2CC[C@@H]1C2)C(C)C` (stereo partly drawn) [Compound 2]: the EC50 (as a rule, the concentration that produces a half-maximal response) in the assay with HCV replicon genotype 1a was 0.52 nM; in the assay with HCV replicon genotype 1b, 0.005 nM; in the assay with HCV replicon genotype 2a, less than 0.019 nM; in the assay on HCV replicon genotype 3a, less than 0.19 nM.

Turning to `COC(=O)N[C@H](C(=O)N1CCC[C@H]1c1ncc(-c2ccc3c(c2)-c2ccc(-c4cnc([C@@H]5CCCN5C(=O)[C@@H](NC(=O)OC)C(C)C)[nH]4)cc2-3)[nH]1)C(C)C` [Compound 1], the concentration giving a half-maximal response (EC50) with HCV replicon genotype 1a is 0.03 nM; in the assay on HCV replicon genotype 1b, 0.007 nM; in the assay with HCV replicon genotype 2a it was less than 0.019 nM; with HCV replicon genotype 3a it was less than 0.19 nM.

In the case of `COC(=O)N[C@H](C(=O)N1CC(F)(F)C[C@H]1c1ncc(-c2ccc3c(c2)-c2ccc(-c4cnc([C@@H]5CC(F)(F)CN5C(=O)[C@@H](NC(=O)OC)C(C)C)[nH]4)cc2-3)[nH]1)C(C)C` [Compound 3], the EC50 is 0.05 nM in the assay on HCV replicon genotype 1a, 0.003 nM in the assay with HCV replicon genotype 1b, less than 0.019 nM in the assay on HCV replicon genotype 2a and 0.022 nM in the assay with HCV replicon genotype 3a.
